The subject of series [1] is allogeneic heart transplant. Briefly: Murine allogeneic heart transplant model, graft survival. Format: in vivo, mice (C57BL/6 donor, Balb/c recipient). The conditions noted are these: mouse, in vivo. How it is done: Polyclonal antibody mATG was administered as an intraperitoneal injection of 5 mg/kg every four weeks or as two 20 mg/kg doses given four days apart when in the transplant setting with the first dose given on the day of transplant (day 0).
C57BL/6 and BALB/c mice were obtained from Charles River (Kingston, N.Y. or Raleigh, N.C.) and used in these experiments between 8 and 13 weeks of age. The donor allogenic C57BL/6 mice were first anesthetized with an intraperitoneal injection of Ketamine (Fort Dodge Animal Health/Pfizer, Fort Dodge, Iowa) and Xylazine (Lloyd, Shenandoah, Iowa) and a median sternotomy was performed. […] The ascending aorta and pulmonary artery were then transected, the graft removed from the donor and the heart was stored in ice-cold saline until engraftment. A recipient mouse (Balb/c) was similarly anesthetized and prepped as described above for donor mice, except that the abdominal cavity was opened. […] After hemostasis was confirmed, the abdominal muscle was closed with a running 5-O Vicryl suture (Ethicon, Johnson & Johnson, Somerville, N.J.), and the skin closed with running 5-0 Ethilon suture (Ethicon). Standard post-op pain assessment and management was performed. Grafts were assessed by palpation 5-7 times per week for the first 30 day, and then 3-4 times per week until the end of the study.

In series [2] the test system is circulating and splenic T cells and B cells. Nature of the series: Flow cytometry of alemtuzumab-mediated lymphocyte depletion in blood and spleen. In kind it is in vivo, huCD52 Tg mice. The protocol: For splenocyte and lymph node cell preparations single-cell suspensions were generated from harvested mouse spleens or inguinal and mesenteric lymph nodes by homogenization between frosted glass slides into PBS containing 2% FCS. For splenocyte preparations, red blood cells were lysed by 1-2 minute incubation with a red blood cell lysis solution (BD Biosciences, San Diego, Calif.). Blood was isolated by retro-orbital bleeding and cell preparations were performed by lysing red blood cells with red blood cell lysing solution (BD Biosciences) for 20-30 minutes. For all tissue preparations, live cells were enumerated using the ViCell automated counter (Beckman Coulter, Fullerton, Calif.). Following isolation, all cell preparations were washed with PBS/2% FCS prior to use in the assays described below.
For evaluation of cell populations within different tissues, single cell suspensions of the tissues were incubated with fluorochrome-conjugated antibodies that included anti-mouse CD4, CD8, CD25, CD44, CD62L (all antibodies from BD Biosciences or eBioscience, San Diego, Calif.). Intracellular Foxp3 expression analysis was performed according to the anti-Foxp3 manufacturer's protocol (eBiosciences, San Diego, Calif.). Following incubation with the antibodies, cells were washed and analyzed by flow cytometry (FACSCanto, BD Biosciences and FCS Express software, De Novo Software, Los Angeles, Calif.).

The test system of series [3] is anti-alemtuzumab antibodies. The conditions noted are these: rheumatoid arthritis patients, single dose escalation study; cited from earlier work.
The next series has as its system anti-alemtuzumab IgG. Briefly: Anti-alemtuzumab IgG ELISA titers in huCD52 Tg mice. A general note: In an ELISA, binding on a coated surface is turned into a signal by an enzyme label.
The next series relates to anti-rhGAA IgG. Nature of the series: Anti-rhGAA IgG ELISA titers in mice treated with rhGAA. In kind it is in vivo. The protocol:
Recombinant human alglucosidase alfa (rhGAA, marketed by Genzyme Corp. as Myozyme®) was used as a formulated drug product. Mice were treated weekly with 20 mg/kg of rhGAA by bolus tail vein injection unless stated differently. All mice were treated prophylactically with 5 to 30 mg/kg diphenhydramine (Baxter Healthcare Corporation, Deerfield, Ill.) intraperitoneally prior to rhGAA administration. Control animals were treated intravenously with either sterile 0.9% saline or rhGAA-formulation buffer. Methotrexate treatment
Mice were bled 4-6 days following rhGAA treatment and specific IgG was measured by ELISA. […] Endpoint titers were defined as the reciprocal of the sample dilution resulting in an absorbance value of 0.2 using Softmax software (Molecular Devices, Sunnyvale, Calif.).
C57Bl/6 mice were treated with one 20 mg/kg intravenous dose of rhGAA (Genzyme Corporation), 3 consecutive intraperitoneal doses of 5 mg/kg methotrexate (APP Pharmaceuticals, LLC), and either 1D11 or 13C4 at 5 mg/kg (Genzyme Corporation) for 3 doses every other day. Methotrexate, 1D11, and 13C4 treatment commenced with rhGAA injections. Spleens were collected 7 days after treatment initiation and were processed as described above for B cells, culture and flow analysis. Additionally, rhGAA titer data was obtained by treating animals as described above, with rhGAA dosed weekly over 12 weeks, methotrexate dosed for either 1 or 3 cycles, and 1D11 or 13C4 dosed 3 times a week every other day for 12 weeks. Serum samples were collected every 2 weeks for ELISA analysis.

Setting [4] is: alemtuzumab 0.5 mg/kg iv five consecutive days.
[5] abbreviates: peripheral blood, four weeks after five consecutive days of 0.5 mg/kg iv.

Description for anti-alemtuzumab IgG: Alemtuzumab-related studies employed human CD52 (huCD52) transgenic (Tg) mice between 6-12 weeks of age that were obtained from Charles River Laboratories/Genzyme Corp. Mice were housed and maintained in accordance with the Guide for Care and Use of Laboratory Animals and under American Association for Accreditation of Laboratory Animals Care I accreditation and all animal protocols used in these studies were approved by the Institutional Animals Care and Use Committee.
Monoclonal antibody alemtuzumab was administered intravenously as either a single injection of 0.5 mg/kg or in either a three or five day cycle of 0.5 mg/kg/day.
Methotrexate (Calbiochem catalog #454125) was administered at 0.5, 1.0, 2.0 or 5 mg/kg by intraperitoneal injection for 1-3 cycles, where each cycle equals either three, six or seven consecutive days of injection depending upon the experiment.
Mice were bled 4-6 days following alemtuzumab treatment and specific anti-alemtuzumab IgG was measured by ELISA. Briefly, 96-well plates (Corning Inc., Corning, N.Y., USA) were coated overnight with 3 μg/ml of alemtuzumab in PBS (pH 7.2). Following blocking with 0.1% BSA in PBS, serial dilutions of serum were added in duplicate to alemtuzumab-coated plates and incubated at 37° C. for 1 h. The plates were washed, and horseradish peroxidase-conjugated goat anti-mouse IgG secondary antibody (Southern Biotechnology Associates, Birmingham, Ala., USA) was added and allowed to incubate for 1 h at 37° C. Following a final wash, TMB substrate (BioFx, Owings Mills, Md., USA) was added and allowed to develop for 15 min at room temperature. The reaction was stopped by the addition of 1 N HCl and absorbance values were read at 450/650 nm on an ELISA plate reader (Molecular Devices, Sunnyvale, Calif., USA). End-point titers were defined as the antilog of the logarithmically transformed sample dilution interpolated at an absorbance value of 0.2 using Excel software (Microsoft, Redmond, Wash., USA).

On to `O=P1(N(CCCl)CCCl)NCCCO1` (stereo not drawn) [cyclophosphamide], for which the “graft survival when co-administered with mATG” value in series [1] is “failed to significantly prolong graft survival”.

Consider `COc1c(C)c2c(c(O)c1C/C=C(\C)CCC(=O)OCCN1CCOCC1)C(=O)OC2` [mycophenolate mofetil], for which the “graft survival when co-administered with mATG” value in series [1] is given as “failed to significantly prolong graft survival”.

For the molecule “alemtuzumab: lymphocyte-depleting humanized anti-CD52 monoclonal antibody”, the “percent depletion of circulating B cells” value in series [2] (24 hours after a single dose of alemtuzumab) worked out at 92%. Further, in series [2] (setting [4]), the “splenic follicular, B1 and regulatory B cells” value is reported as “depleted at one and/or two weeks”; the “splenic marginal zone, transitional 1 and transitional 2 B cells” value is reported as “not depleted at any of the time-points”; the “splenic transitional 3 B cells” value is recorded as “only depleted after one week of treatment”. Further, in series [2] (alemtuzumab alone, or with methotrexate 5 mg/kg daily for first three days), the “depletion of circulating T cells by fifth monthly dose of alemtuzumab” value is reported as “no longer deplete T cells”. In series [2] (setting [5]), the “recovery of CD19+ B cell numbers” value is “returned to control levels”; the “recovery of total CD3+ T cells, CD4+ T helper cells and CD8+ T cytotoxic cells” value is recorded as “did not recover to pre-treatment levels”. For the same molecule, the “earliest depletion observed in peripheral blood, post-dosing” value in series [2] (single dose of alemtuzumab) is reported as “three hours”. In series [2] (three days after a single dose of alemtuzumab), the “percent depletion of circulating B cells” value is 36%. Besides, in series [2] (three days after a single dose of alemtuzumab, no methotrexate), the splenic cell subsets entry is “significantly depleted”. Further, in series [3], the “patients in whom anti-alemtuzumab antibodies developed” value is given as 63%. Also, the ADA responses elicited result in the series on anti-alemtuzumab IgG (alemtuzumab 0.5 mg/kg iv) is given as “significant ADA responses”. In the series with anti-alemtuzumab IgG (alemtuzumab 0.5 mg/kg monthly), the “ADA response following the fifth dose” value was “no longer generated anti-alemtuzumab antibodies”. The “ADA titers against alemtuzumab” value with anti-alemtuzumab IgG (huCD52 Tg CD1 mice) was > 100,000.

In the case of “rhGAA: recombinant human acid alpha-glucosidase, marketed by Genzyme as Myozyme”, the “ADA to rhGAA” value with anti-rhGAA IgG (T cell deficient Nu/Nu mice) was “little to no ADA”. In the series with anti-rhGAA IgG (week 6, rhGAA alone, rhGAA + methotrexate, or with 5 mg/kg 1D11 or 13C4), the “animals exhibiting high anti-rhGAA titers” value is “two”.

Values taken from patent US11672802B2, “Induction of immune tolerance by using methotrexate” (Genzyme Corporation, priority 2011, dated 2023).
